Measurements taken from US10159265B2, “Feed composition for reducing ruminant methanogenesis” (priority 2012, dated 2018).
Marks after values point to notes of the source that are not given here.

Experiments:
[1] = system: "in vitro" ruminal fluid cultures; assay: Ammonia (N-NH3) concentration in "in vitro" ruminal fluid cultures; type: cell-based, calves; details: 72 h
[2] = system: "in vitro" ruminal fluid cultures; assay: as above; type: cell-based, calves; details: for N-NH3 concentration, average (M): average over incubation times
From the text: (§1) Two trials following an identical experimental protocol were designed to study the effect of different pure flavonoids on rumen fermentation using a simulatory “in vitro” system based on the experimental protocol described by Theodorou M K et al. (1994) Animal Feed Science and Technology, 48 (3), p. 185-197; Mauricio, R. M., et al. (1999) Animal Feed Science and Technology 79, 321-330.
(§2) Rumen cannulated calves which received a mixed ration mainly composed of concentrate (90:10) were used as rumen fluid donor; feed composition is presented in Table 1. The inoculum was collected and filtered through two-layer surgical gauze and kept in thermo pots. Flavonoids (Table 2) plus 600 mg of concentrate (Table 1) and 60 mg of barley straw as the substrate were dosed by triplicate in preheated bottles (39° C.) and maintained under anaerobic conditions. Flavonoids isonaringin, neoeritrocin, poncirin were purchased from INDOFINE Chemical Company, Inc (USA). 10 ml of rumen fluid and 40 ml of incubation medium were added to the bottles (McDougall, El (1948) Studies on ruminant saliva. 1. The composition and output of sheep's saliva. Biochem J. 43(1) 99-109). Once the bottles were filled and the anaerobic condition was applied, the bottles were sealed and the incubation process was started in a hot water bath. Pressure readings were made at 2, 4, 6, 8, 12, 24, 36 and 48 hours. Each sample was incubated in triplicate in two sets or batches.
(§3) After 12 hours of incubation, one bottle (replicate) from each treatment was opened, pH was recorded and the bottle was sampled for volatile fatty acids (Jouany, J. P., 1982 Science des Aliments 2, 131-144), lactate (Taylor, K. A. C. C., 1996. Appl. Biochem. Biotechnol. Enzym. Eng. Biotechnol. 56, 49-58) and ammonia (Chaney, A. L., Marbach, E. P., 1962. Clin. Chem. 8, 130-132) analyses.

ruminal bacteria = assay: Bacterial DNA concentration by qPCR; type: cell-based, calves; details: 12 hours of incubation
Description: as §2, §3
(§4) The environmental DNA was extracted using the technique proposed by Yu and Morrison (2004). Quantification of Streptococcus bovis, Megasphaera elsdenii and Selenomonas ruminantium DNA was done by qPCR using specific primers (Tajima, K. et al. 2001. Appl. Environ. Microb. 67, 2766-2774; Ouwerkerk, D., et al. 2002. J. Appl. Microbiol. 92, 753-758). Results were statistically analyzed using the PROC MIXED procedure of SAS statistical package (SAS, 2000, User's guide: Statistics, version 8 editions inst., Inc., Cary, N.C.). The least significant difference was used to compare the means. Differences between means in which P<0.05 were accepted as significant.

[3] = system: "in vitro" ruminal fluid culture; assay: Lactate concentration in "in vitro" ruminal fluid culture; type: cell-based, calves; details: 12 hours of incubation
From the text: as §1, §2, §3

Megasphaera elsdenii = assay: qPCR relative quantification of Megasphaera elsdenii; type: cell-based; details: 12 hours of incubation
Description: as §2, §3, §4

Streptococcus bovis = assay: qPCR relative quantification of Streptococcus bovis; type: cell-based; details: 12 hours of incubation
Description: as §2, §3, §4

Selenomonas ruminantium = assay: qPCR relative quantification of Selenomonas ruminantium; type: cell-based; details: 12 hours of incubation
Description: as §2, §3, §4

[4] = system: "in vitro" ruminal fluid cultures; assay: Volatile fatty acid concentration and molar proportions in "in vitro" ruminal fluid cultures; type: cell-based, calves; details: for % Acetate, molar ratio, average (μ) / % Butyrate, molar ratio, average (μ) / % Propionate, molar ratio, average (M) / VFA concentration, average (μ): average over incubation times
From the text: as §1, §2
[…] P., 1982 Science des Aliments 2, 131-144), lactate (Taylor, K. A. C. C., 1996. Appl. Biochem. Biotechnol. Enzym. Eng. Biotechnol. 56, 49-58) and ammonia (Chaney, A. L., Marbach, E. P., 1962. Clin. Chem. 8, 130-132) analyses.

[5] = system: methanogenic (archea) populations; assay: Methane production in "in vitro" rumen fluid culture; type: cell-based, calves; set-up: Average methane production / Accumulated methane production / Methane production / Cumulative methane production: unit not given here; details: Exp 1
From the text: as §1
as §2, with “Pressure readings were made at 2, 4, 6, 8, 12, 24, 36 and 48 hours.” left out
The effects of flavonoids substances on fermentation activity of certain archea populations which are theoretically responsible for the methane production were analyzed.
The experimental design allows determining whether the effect of flavonoids on methane reduction was derived from a general reduction in microbial activity and biogas production or contrarily flavonoid affects specifically on methanogenic (archea) populations. The presence of flavonoids in the culture medium reduced methane contribution in the total biogas production (P<0.05) although, again, the aforementioned impact was heterogeneous.

[6] = system: "in vitro" rumen fluid culture; assay: Biogas production in "in vitro" rumen fluid culture (pressure meter); type: cell-based, calves; set-up: Average biogas production / Cumulative biogas production / Biogas production: unit not given here; details: Exp 1; for Average biogas production: average over doses and incubation times
Description: as §1
Gas production was determined from a semi-automatic pressure meter, the relationship between pressure levels and the produced gas volume was previously calculated.
as §2, with “Pressure readings were made at 2, 4, 6, 8, 12, 24, 36 and 48 hours.” left out

[7] = average over doses and incubation times

COc1ccc([C@@H]2CC(=O)c3c(O)cc(O[C@@H]4O[C@H](CO[C@@H]5O[C@@H](C)[C@H](O)[C@@H](O)[C@H]5O)[C@@H](O)[C@H](O)[C@H]4O)cc3O2)cc1O [Hesperidin, hesperidin]
N-NH3 concentration [1]: 323.11 mg/L | N-NH3 concentration ([2]; 0 h (initial constant value)): 149.99 mg/L | N-NH3 concentration ([2]; 12 h): 187.36 mg/L | N-NH3 concentration, average (M) [2]: 220.15 mg/L | Bacteria DNA (ruminal bacteria): 9.18 ^a μg/ml | Lactate [3]: 44.3 mg/L | Lactate ([3]; listed as hesperidin): tended to moderate the recorded increase | Relative Quantification 2^(ΔΔCt) M. elsdenii (Megasphaera elsdenii): 1.18 ^b | Relative Quantification 2^(ΔΔCt) S. bovis (Streptococcus bovis): 0.58 | Relative Quantification 2^(ΔΔCt) S. ruminantium (Selenomonas ruminantium): 0.74 | % Acetate, molar ratio ([4]; 0 h): 62.51 mol/100 mol | % Butyrate, molar ratio ([4]; 0 h): 9.07 mol/100 mol | % Propionate, molar ratio ([4]; 0 h): 20.03 mol/100 mol | A/P rate (acetate/propionate) ([4]; 0 h): 3.12 | VFA concentration ([4]; 0 h (initial constant value)): 13.78 mmol/L | % Acetate, molar ratio ([4]; 12 h): 56.88 mol/100 mol | % Butyrate, molar ratio ([4]; 12 h): 10.41 mol/100 mol | % Propionate, molar ratio ([4]; 12 h): 27.22 mol/100 mol | A/P rate (acetate/propionate) ([4]; 12 h): 2.09 | VFA concentration ([4]; 12 h): 38.25 mmol/L | % Acetate, molar ratio ([4]; 72 h): 56.04 mol/100 mol | % Butyrate, molar ratio ([4]; 72 h): 10.78 mol/100 mol | % Propionate, molar ratio ([4]; 72 h): 25.80 mol/100 mol | A/P rate (acetate/propionate) ([4]; 72 h): 2.17 | VFA concentration ([4]; 72 h): 53.70 mmol/L | % Acetate, molar ratio, average (μ) [4]: 58.48 mol/100 mol | % Butyrate, molar ratio, average (μ) [4]: 10.08 ^ab mol/100 mol | % Propionate, molar ratio, average (M) [4]: 24.35 ^ab mol/100 mol | VFA concentration, average (μ) [4]: 35.25 mmol/L | Accumulated methane production ([5]; 12 h): 21.08 | Proportion of methane in the produced biogas ([5]; 12 h): 11.26 | Accumulated methane production ([5]; 24 h): 26.03 | Proportion of methane in the produced biogas ([5]; 24 h): 12.40 | Accumulated methane production ([5]; 48 h): 31.54 | Proportion of methane in the produced biogas ([5]; 48 h): 16.43 | Accumulated methane production ([5]; 72 h): 35.04 | Proportion of methane in the produced biogas ([5]; 72 h): 16.55 | Average methane production [5, 7]: 28.42^cd | Proportion of methane in the produced biogas [5, 7]: 14.16^cd | Average methane production ([5]; average over doses and incubation times, listed as hesperidin): not modified | Methane production ([5]; dose 1, 0.2 g/kg DM): 28.11 | Proportion of methane in the produced biogas ([5]; dose 1, 0.2 g/kg DM): 14.05 | Methane production ([5]; dose 2, 0.5 g/kg DM): 28.74 | Proportion of methane in the produced biogas ([5]; dose 2, 0.5 g/kg DM): 14.27 | Cumulative biogas production ([6]; 12 h incubation): 187.19 | Cumulative biogas production ([6]; 24 h incubation): 227.31 | Cumulative biogas production ([6]; 48 h incubation): 261.28 | Cumulative biogas production ([6]; 72 h incubation): 282.84 | Average biogas production [6]: 239.65^cd | Average biogas production ([6]; listed as hesperidin): 239.6 | Biogas production ([6]; dose 1, 0.2 g/kg DM): 239.91 | Biogas production ([6]; dose 2, 0.5 g/kg DM): 239.4

C[C@@H]1O[C@@H](OC[C@H]2O[C@@H](Oc3cc(O)c4c(c3)O[C@H](c3ccc(O)cc3)CC4=O)[C@H](O)[C@@H](O)[C@@H]2O)[C@H](O)[C@H](O)[C@H]1O [Isonaringin, isonaringin]
N-NH3 concentration [1]: 322.53 mg/L | N-NH3 concentration ([2]; 0 h (initial constant value)): 149.99 mg/L | N-NH3 concentration ([2]; 12 h): 165.46 mg/L | N-NH3 concentration, average (M) [2]: 212.66 mg/L | Bacteria DNA (ruminal bacteria): 16.18 ^ab μg/ml | Lactate [3]: 92.4 mg/L | Relative Quantification 2^(ΔΔCt) M. elsdenii (Megasphaera elsdenii): 1.08 ^ab | Relative Quantification 2^(ΔΔCt) S. bovis (Streptococcus bovis): 0.46 | Relative Quantification 2^(ΔΔCt) S. ruminantium (Selenomonas ruminantium): 0.86 | % Acetate, molar ratio ([4]; 0 h): 62.51 mol/100 mol | % Butyrate, molar ratio ([4]; 0 h): 9.07 mol/100 mol | % Propionate, molar ratio ([4]; 0 h): 20.03 mol/100 mol | A/P rate (acetate/propionate) ([4]; 0 h): 3.12 | VFA concentration ([4]; 0 h (initial constant value)): 13.78 mmol/L | % Acetate, molar ratio ([4]; 12 h): 53.94 mol/100 mol | % Butyrate, molar ratio ([4]; 12 h): 10.31 mol/100 mol | % Propionate, molar ratio ([4]; 12 h): 30.20 mol/100 mol | A/P rate (acetate/propionate) ([4]; 12 h): 1.79 | VFA concentration ([4]; 12 h): 36.49 mmol/L | % Acetate, molar ratio ([4]; 72 h): 55.34 mol/100 mol | % Butyrate, molar ratio ([4]; 72 h): 10.24 mol/100 mol | % Propionate, molar ratio ([4]; 72 h): 26.94 mol/100 mol | A/P rate (acetate/propionate) ([4]; 72 h): 2.06 | VFA concentration ([4]; 72 h): 52.26 mmol/L | % Acetate, molar ratio, average (μ) [4]: 57.26 mol/100 mol | % Butyrate, molar ratio, average (μ) [4]: 9.87 ^ab mol/100 mol | % Propionate, molar ratio, average (M) [4]: 25.72 ^b mol/100 mol | VFA concentration, average (μ) [4]: 34.18 mmol/L | % Propionate, molar ratio, average (M) ([4]; listed as isonaringin): improved | Accumulated methane production ([5]; 12 h): 19.84 | Proportion of methane in the produced biogas ([5]; 12 h): 10.68 | Accumulated methane production ([5]; 24 h): 24.94 | Proportion of methane in the produced biogas ([5]; 24 h): 13.56 | Accumulated methane production ([5]; 48 h): 30.81 | Proportion of methane in the produced biogas ([5]; 48 h): 16.79 | Accumulated methane production ([5]; 72 h): 34.08 | Proportion of methane in the produced biogas ([5]; 72 h): 16.89 | Average methane production [5, 7]: 27.42^de | Proportion of methane in the produced biogas [5, 7]: 14.48^bc | Average methane production ([5]; average over doses and incubation times, listed as isonaringin): decreased | Methane production ([5]; dose 1, 0.2 g/kg DM): 27.40 | Proportion of methane in the produced biogas ([5]; dose 1, 0.2 g/kg DM): 14.53 | Methane production ([5]; dose 2, 0.5 g/kg DM): 27.43 | Proportion of methane in the produced biogas ([5]; dose 2, 0.5 g/kg DM): 14.43 | Cumulative biogas production ([6]; 12 h incubation): 185.58 | Cumulative biogas production ([6]; 24 h incubation): 223.38 | Cumulative biogas production ([6]; 48 h incubation): 258.85 | Cumulative biogas production ([6]; 72 h incubation): 278.66 | Biogas production ([6]; dose 1, 0.2 g/kg DM): 235.13 | Biogas production ([6]; dose 2, 0.5 g/kg DM): 238.1
